Data reported in patent US7214675B2, “Urea substituted imidazoquinoline ethers” (3M Innovative Properties Company, priority 2000, dated 2007).

Legend:
[1] = tested on: interferon (α) induction in human peripheral blood mononuclear cells (PBMC); assay: Cytokine induction in human cells: interferon (α) secreted by PBMC, ELISA; format: cell-based; conditions: lowest concentration found to induce interferon, incubated 18 to 24 hours at 37° C.
Source text: (§1) An in vitro human blood cell system is used to assess cytokine induction. Activity is based on the measurement of interferon and tumor necrosis factor (α) (IFN and TNF, respectively) secreted into culture media as described by Testerman et. al. In “Cytokine Induction by the Immunomodulators Imiquimod and S-27609”, Journal of Leukocyte Biology, 58, 365–372 (September, 1995).
(§2) Whole blood from healthy human donors is collected by venipuncture into EDTA vacutainer tubes. Peripheral blood mononuclear cells (PBMC) are separated from whole blood by density gradient centrifugation using Histopaque®-1077. Blood is diluted 1:1 with Dulbecco's Phosphate Buffered Saline (DPBS) or Hank's Balanced Salts Solution (HBSS). The PBMC layer is collected and washed twice with DPBS or HBSS and resuspended at 4×10^6 cells/mL in RPMI complete. The PBMC suspension is added to 48 well flat bottom sterile tissue culture plates (Costar, Cambridge, Mass. or Becton Dickinson Labware, Lincoln Park, N.J.) containing an equal volume of RPMI complete media containing test compound.
(§3) The compounds are solubilized in dimethyl sulfoxide (DMSO). The DMSO concentration should not exceed a final concentration of 1% for addition to the culture wells. The compounds are generally tested at concentrations ranging from 30–0.014 μM.
(§4) The solution of test compound is added at 60 μM to the first well containing RPMI complete and serial 3 fold dilutions are made in the wells. The PBMC suspension is then added to the wells in an equal volume, bringing the test compound concentrations to the desired range (30–0.014 μM). The final concentration of PBMC suspension is 2×10^6 cells/mL. The plates are covered with sterile plastic lids, mixed gently and then incubated for 18 to 24 hours at 37° C. in a 5% carbon dioxide atmosphere.
(§5) Following incubation the plates are centrifuged for 10 minutes at 1000 rpm (˜200×g) at 4° C. The cell-free culture supernatant is removed with a sterile polypropylene pipet and transferred to sterile polypropylene tubes. Samples are maintained at −30 to −70° C. until analysis. The samples are analyzed for interferon (α) by ELISA and for tumor necrosis factor (α) by ELISA or IGEN Assay
Interferon (α) concentration is determined by ELISA using a Human Multi-Species kit from PBL Biomedical Laboratories, New Brunswick, N.J. Results are expressed in pg/mL.
(§6) The table below lists the lowest concentration found to induce interferon and the lowest concentration found to induce tumor necrosis factor for each compound.

[2] = tested on: tumor necrosis factor (α) induction in human peripheral blood mononuclear cells (PBMC); assay: Cytokine induction in human cells: tumor necrosis factor (α) secreted by PBMC, ELISA or IGEN assay; format: cell-based; conditions: lowest concentration found to induce tumor necrosis factor, incubated 18 to 24 hours at 37° C.
Source text: as §1, §2, §3, §4, §5
Tumor necrosis factor (α) (TNF) concentration is determined using ELISA kits available from Biosource International, Camarillo, Calif. Alternately, the TNF concentration can be determined by Origen® M-Series Immunoassay and read on an IGEN M-8 analyzer from IGEN International, Gaithersburg, Md. The immunoassay uses a human TNF capture and detection antibody pair from Biosource International, Camarillo, Calif. Results are expressed in pg/mL.
as §6

melting point | SMILES | minimal effective concentration [1] | minimal effective concentration [2]
184.8 to 185.8 °C | COCCc1nc2c(N)nc3ccccc3c2n1CCOCCN(C)C(=O)Nc1ccccc1 [Example 3, N-(2-{2-[4-amino-2-(2-methoxyethyl)-1H-imidazo[4,5-c]quinolin-1-yl]ethoxy}ethyl)-N-methyl-N′-phenylurea] | 0.01 µM | 0.37 µM
180 to 182 °C | COCCc1nc2c(N)nc3c(c2n1CCOCCNC(=O)Nc1ccccc1)CCCC3 [Example 2, N-(2-{2-[4-amino-2-(2-methoxyethyl)-6,7,8,9-tetrahydro-1H-imidazo[4,5-c]quinolin-1-yl]ethoxy}ethyl)-N′-phenylurea] |  | 
167.7 to 170 °C | COCCc1nc2c(N)nc3c(c2n1CCOCCN(C)C(=O)Nc1ccccc1)CCCC3 [Example 4, N-(2-{2-[4-amino-2-(2-methoxyethyl)-6,7,8,9-tetrahydro-1H-imidazo[4,5-c]quinolin-1-yl]ethoxy}ethyl)-N-methyl-N′-phenylurea] |  | 

Second part, the compound before the results:

SMILES | melting point | minimal effective concentration [1] | minimal effective concentration [2]
CCOCc1nc2c(N)nc3ccccc3c2n1CCOCCNC(=O)NC1CCCCC1 [Example 54, N-(2-{2-[4-amino-2-(ethoxymethyl)-1H-imidazo[4,5-c]quinolin-1-yl]ethoxy}ethyl)-N′cyclohexylurea] | 161 to 164 °C |  | 
CCc1nc2c(N)nc3ccccc3c2n1CCOCCNC(=O)N1CCOCC1 [Example 52, N-{2-[2-(4-amino-2-ethyl-1H-imidazo[4,5-c]quinolin-1-yl)ethoxy]ethyl}morpholine-4-carboxamide] | 182 to 184 °C |  | 
COCCc1nc2c(N)nc3ccccc3c2n1CCOCCN(C)C(=O)N1CCOCC1 [Example 6, N-(2-{2-[4-amino-2-(2-methoxyethyl)-1H-imidazo[4,5-c]quinolin-1-yl]ethoxy}ethyl)-N-methylmorpholine-4-carboxamide] | 121.8 to 122.3 °C |  | 
CCc1nc2c(N)nc3ccccc3c2n1CCOCCNC(=O)NC1CCCCC1 [Example 51, N-{2-[2-(4-amino-2-ethyl-1H-imidazo[4,5-c]quinolin-1-yl)ethoxy]ethyl}-N′-cyclohexylurea] | 198 to 200 °C |  | 
